In PubChem BioAssay (NCI):
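96-well plates; 48 h exposure; 5 concentrations. Endpoints by linear interpolation between flanking doses. Not reached: highest tested concentration assigned. Abbreviation: GI50, concentration required for 50% inhibition of growth. TGI: total growth inhibition.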

Assays:
Assay in all cases: inhibition of tumour cell growth, NCI panel, 48 h
786-0 renal = tested on: 786-0 renal
A498 renal = tested on: A498 renal
ACHN renal = tested on: ACHN renal
BT-549 breast = tested on: BT-549 breast
CAKI-1 renal = tested on: CAKI-1 renal
CCRF-CEM leukemia = tested on: CCRF-CEM leukemia
COLO 205 colon = tested on: COLO 205 colon
DU-145 prostate = tested on: DU-145 prostate
EKVX NSCLC = tested on: EKVX NSCLC
HCC-2998 colon = tested on: HCC-2998 colon
HCT-116 colon = tested on: HCT-116 colon
HCT-15 colon = tested on: HCT-15 colon
HL-60(TB) leukemia = tested on: HL-60(TB) leukemia
HOP-62 NSCLC = tested on: HOP-62 NSCLC
HOP-92 NSCLC = tested on: HOP-92 NSCLC
HS 578T breast = tested on: HS 578T breast
HT29 colon = tested on: HT29 colon
IGROV1 ovarian = tested on: IGROV1 ovarian
K-562 leukemia = tested on: K-562 leukemia
KM12 colon = tested on: KM12 colon
LOX IMVI melanoma = tested on: LOX IMVI melanoma
M14 melanoma = tested on: M14 melanoma
MALME-3M melanoma = tested on: MALME-3M melanoma
MCF7 breast = tested on: MCF7 breast
MDA-MB-231 breast = tested on: MDA-MB-231 breast
MDA-MB-435 = tested on: MDA-MB-435
MOLT-4 leukemia = tested on: MOLT-4 leukemia
NCI-H226 lung = tested on: NCI-H226 lung
NCI-H460 lung = tested on: NCI-H460 lung
NCI-H522 lung = tested on: NCI-H522 lung
NCI/ADR-RES ovarian = tested on: NCI/ADR-RES ovarian
OVCAR-3 ovarian = tested on: OVCAR-3 ovarian
OVCAR-4 ovarian = tested on: OVCAR-4 ovarian
OVCAR-5 ovarian = tested on: OVCAR-5 ovarian
OVCAR-8 ovarian = tested on: OVCAR-8 ovarian
PC-3 prostate = tested on: PC-3 prostate
RPMI-8226 leukemia = tested on: RPMI-8226 leukemia
RXF 393 renal = tested on: RXF 393 renal
SF-268 CNS = tested on: SF-268 CNS
SF-295 CNS = tested on: SF-295 CNS
SF-539 CNS = tested on: SF-539 CNS
SK-MEL-2 melanoma = tested on: SK-MEL-2 melanoma
SK-MEL-28 melanoma = tested on: SK-MEL-28 melanoma
SK-MEL-5 melanoma = tested on: SK-MEL-5 melanoma
SK-OV-3 ovarian = tested on: SK-OV-3 ovarian
SN12C renal = tested on: SN12C renal
SNB-19 CNS = tested on: SNB-19 CNS
SNB-75 CNS = tested on: SNB-75 CNS
SR leukemia = tested on: SR leukemia
SW-620 colon = tested on: SW-620 colon
T-47D breast = tested on: T-47D breast
TK-10 renal = tested on: TK-10 renal
U251 CNS = tested on: U251 CNS
UACC-257 melanoma = tested on: UACC-257 melanoma
UACC-62 melanoma = tested on: UACC-62 melanoma
UO-31 renal = tested on: UO-31 renal

CN(C)CCCNc1c2ccc(Cl)cc2nc2c1oc1ccccc12
GI50 (786-0 renal): 3.2 µM
TGI (786-0 renal): 14.2 µM
GI50 (A498 renal): 7.55 µM
TGI (A498 renal): 21.2 µM
GI50 (ACHN renal): 1780 nM
TGI (ACHN renal): 12.2 µM
GI50 (BT-549 breast): 4.12 µM
TGI (BT-549 breast): 14.4 µM
GI50 (CAKI-1 renal): 1590 nM
TGI (CAKI-1 renal): 4.39 µM
GI50 (CCRF-CEM leukemia): 2570 nM
TGI (CCRF-CEM leukemia): 10.3 µM
GI50 (COLO 205 colon): 1510 nM
TGI (COLO 205 colon): 4.03 µM
GI50 (DU-145 prostate): 3.49 µM
TGI (DU-145 prostate): 79.2 µM
GI50 (EKVX NSCLC): 3.51 µM
TGI (EKVX NSCLC): 21.3 µM
GI50 (HCC-2998 colon): 1770 nM
TGI (HCC-2998 colon): 4.18 µM
GI50 (HCT-116 colon): 1420 nM
TGI (HCT-116 colon): 8.19 µM
GI50 (HCT-15 colon): 2350 nM
TGI (HCT-15 colon): 11.1 µM
GI50 (HL-60(TB) leukemia): 2520 nM
TGI (HL-60(TB) leukemia): 8.94 µM
GI50 (HOP-62 NSCLC): 2610 nM
TGI (HOP-62 NSCLC): 9.05 µM
GI50 (HOP-92 NSCLC): 1340 nM
TGI (HOP-92 NSCLC): 5.13 µM
GI50 (HS 578T breast): 3.53 µM
TGI (HS 578T breast): 22.2 µM
GI50 (HT29 colon): 1340 nM
TGI (HT29 colon): 3.58 µM
GI50 (IGROV1 ovarian): 2770 nM
TGI (IGROV1 ovarian): 7.49 µM
GI50 (K-562 leukemia): 2020 nM
TGI (K-562 leukemia): 11.7 µM
GI50 (KM12 colon): 2760 nM
TGI (KM12 colon): 16.8 µM
GI50 (LOX IMVI melanoma): 1860 nM
TGI (LOX IMVI melanoma): 4.1 µM
GI50 (M14 melanoma): 1690 nM
TGI (M14 melanoma): 3.45 µM
GI50 (MALME-3M melanoma): 3.1 µM
TGI (MALME-3M melanoma): 10.6 µM
GI50 (MCF7 breast): 1770 nM
TGI (MCF7 breast): 6.02 µM
GI50 (MDA-MB-231 breast): 2440 nM
TGI (MDA-MB-231 breast): 8.61 µM
GI50 (MDA-MB-435): 1650 nM
TGI (MDA-MB-435): 3.32 µM
GI50 (MOLT-4 leukemia): 676 nM
TGI (MOLT-4 leukemia): 13.2 µM
GI50 (NCI-H226 lung): 3.19 µM
TGI (NCI-H226 lung): 11.9 µM
GI50 (NCI-H460 lung): 1640 nM
TGI (NCI-H460 lung): 8.1 µM
GI50 (NCI-H522 lung): 2180 nM
TGI (NCI-H522 lung): 7.89 µM
GI50 (NCI/ADR-RES ovarian): 1910 nM
TGI (NCI/ADR-RES ovarian): 12.6 µM
GI50 (OVCAR-3 ovarian): 3.45 µM
TGI (OVCAR-3 ovarian): 15.6 µM
GI50 (OVCAR-4 ovarian): 2120 nM
TGI (OVCAR-4 ovarian): 6.89 µM
GI50 (OVCAR-5 ovarian): 2460 nM
TGI (OVCAR-5 ovarian): 7.81 µM
GI50 (OVCAR-8 ovarian): 2420 nM
TGI (OVCAR-8 ovarian): 7.87 µM
GI50 (PC-3 prostate): 2160 nM
TGI (PC-3 prostate): 6.13 µM
GI50 (RPMI-8226 leukemia): 2270 nM
TGI (RPMI-8226 leukemia): 5.94 µM
GI50 (RXF 393 renal): 1640 nM
TGI (RXF 393 renal): 3.76 µM
GI50 (SF-268 CNS): 2540 nM
TGI (SF-268 CNS): 12.1 µM
GI50 (SF-295 CNS): 3.41 µM
TGI (SF-295 CNS): 15.3 µM
GI50 (SF-539 CNS): 1760 nM
TGI (SF-539 CNS): 3.39 µM
GI50 (SK-MEL-2 melanoma): 3.29 µM
TGI (SK-MEL-2 melanoma): 12.6 µM
GI50 (SK-MEL-28 melanoma): 4.43 µM
TGI (SK-MEL-28 melanoma): 16.3 µM
GI50 (SK-MEL-5 melanoma): 10.6 µM
TGI (SK-MEL-5 melanoma): 23.8 µM
GI50 (SK-OV-3 ovarian): 3.04 µM
TGI (SK-OV-3 ovarian): 11.2 µM
GI50 (SN12C renal): 2500 nM
TGI (SN12C renal): 11.6 µM
GI50 (SNB-19 CNS): 3.37 µM
TGI (SNB-19 CNS): 20.5 µM
GI50 (SNB-75 CNS): 1680 nM
TGI (SNB-75 CNS): 4.66 µM
GI50 (SR leukemia): 2340 nM
TGI (SR leukemia): 10.3 µM
GI50 (SW-620 colon): 1240 nM
TGI (SW-620 colon): 10.1 µM
GI50 (T-47D breast): 4.84 µM
TGI (T-47D breast): 23.2 µM
GI50 (TK-10 renal): 4.19 µM
TGI (TK-10 renal): 22.1 µM
GI50 (U251 CNS): 2690 nM
TGI (U251 CNS): 10.3 µM
GI50 (UACC-257 melanoma): 3.79 µM
TGI (UACC-257 melanoma): 15.2 µM
GI50 (UACC-62 melanoma): 5.2 µM
TGI (UACC-62 melanoma): 19.6 µM
GI50 (UO-31 renal): 2090 nM
TGI (UO-31 renal): 12.8 µM
